According to patent publication US20230355568A1, “THERAPEUTIC AGENT FOR MALIGNANT MESOTHELIOMA AND METHOD FOR SELECTING PATIENT HAVING MALIGNANT MESOTHELIOMA” (National University Corporation Tokai National Higher …, priority 2020, published 2023):
Structures can show the parent of a compound that is named as a salt. Bridge positions count the residues as written; N and C are the ends. Square brackets hold non-standard residues; d marks the D form. Peptide text beside a SMILES is read from it. Orn = NCCC[C@H](N)C(=O)O; Mpa = O=C(O)CCS

Columns and labels:
[1] = system: malignant mesothelioma cell line NCI-H2052; test: WST-1 assay with oxytocin receptor inhibitor, NCI-H2052; format: cell-based; conditions: culture five days, Cligosiban 0-25 μM, other inhibitors 0-80 μM (FIG. 3, FIG. 4)
Experimental: (§1) The procedure is illustrated below. • (1) Cells of malignant mesothelioma cell line NCI-H2052 were seeded on a dish and cultured for one day. • (2) Cligosiban was administered to the dish at a concentration of 0, 5, 10, 15, 20, or 25 μM. • (3) After culture for five days, evaluation with WST-1 assay was performed. The WST-1 assay is an assay method to administer cell proliferation test agent WST-1 (product number: 11644807001, purchased from Roche) and evaluate cell proliferation by a colorimetric method.
The same procedure as that in Example 3 was applied except that the oxytocin receptor inhibitor was replaced with OT-R antagonist 1 (purchased from MedChemExpress), which was administered to the dish at a concentration of 0, 20, 40, 60, or 80 μM.
The same procedure as that in Example 5 was applied except that the oxytocin receptor inhibitor was replaced with L368,899 hydrochloride (purchased from MedChemExpress).
The same procedure as that in Example 5 was applied except that the oxytocin receptor inhibitor was replaced with Atosiban (purchased from MedChemExpress).

[2] = system: malignant mesothelioma cell line NCI-2373; test: WST-1 assay with oxytocin receptor inhibitor, NCI-2373; format: cell-based; conditions: culture five days, Cligosiban 0-60 μM, other inhibitors 0-80 μM (FIG. 3, FIG. 4)
Experimental: as §1
The same procedure as that in Example 3 was applied except that the malignant mesothelioma cell line was replaced with NCI-2373 (purchased from ATCC) and Cligosiban was administered to the dish at a concentration of 0, 20, 30, 40, 50, or 60 μM.
The same procedure as that in Example 4 was applied except that the oxytocin receptor inhibitor was replaced with OT-R antagonist 1, which was administered to the dish at a concentration of 0, 20, 40, 60, or 80 μM.
The same procedure as that in Example 6 was applied except that the oxytocin receptor inhibitor was replaced with L368,899 hydrochloride.
The same procedure as that in Example 6 was applied except that the oxytocin receptor inhibitor was replaced with Atosiban.

[3] = system: malignant mesothelioma cell line NCI-H2373; test: WST-1 assay, combined use of Cligosiban and cisplatin, NCI-H2373; format: cell-based; conditions: Cligosiban 45 μM and/or cisplatin 6 μM, culture five days (FIG. 8)
Experimental: (§2) The procedure is illustrated below. • (1) Cells of malignant mesothelioma cell line NCI-H2373 were seeded on a dish and cultured for one day. • (2) Cligosiban 45 μM and cisplatin (product number 033-20091, purchased from FUJIFILM Wako Pure Chemical Corporation) 6 μM were administered to the dish. • (3) After culture for five days, evaluation with WST-1 assay was performed.
The same procedure as that in Example 21 was applied except that only Cligosiban 45 μM was administered.
The same procedure as that in Example 21 was applied except that neither Cligosiban 45 μM nor cisplatin 6 μM was administered.
The same procedure as that in Example 21 was applied except that only cisplatin 6 μM was administered.

[4] = system: malignant mesothelioma cell line NCI-H2052; test: WST-1 assay, combined use of Cligosiban and cisplatin, NCI-H2052; format: cell-based; conditions: Cligosiban 15 μM and/or cisplatin 0.8 μM, culture five days (FIG. 8)
Experimental: as §2
The same procedure as that in Example 21 was applied except that the malignant mesothelioma cell line was replaced with NCI-H2052 and that Cligosiban 15 μM and cisplatin 0.8 μM were administered to the dish.
The same procedure as that in Example 22 was applied except that the malignant mesothelioma cell line was replaced with NCI-H2052 and that Cligosiban 15 μM was administered.
The same procedure as that in Example 23 was applied except that neither Cligosiban 15 μM nor cisplatin 0.8 μM was administered.
The same procedure as that in Example 23 was applied except that only cisplatin 0.8 μM was administered.

[5] = system: malignant mesothelioma cell line NCI-H2052; test: Proliferation suppression of malignant mesothelioma cells with Cligosiban using Xenograft model; format: in vivo; conditions: NCI-H2052 subcutaneous in nude mice, Cligosiban oral 60 mg/kg every other day, 10 doses, vs no Cligosiban (FIG. 1)
Experimental: (§3) The procedure is illustrated below. • (1) 5.0×10^6 cells of malignant mesothelioma cell line NCI-H2052 (purchased from ATCC) were administered to the subcutaneous left buttock of nude mice (BALB/c nude (nu/nu) female, 6 to 8 weeks old: purchased from Charles River Japan). • (2) After 3 days from the subcutaneous administration, oral administration of Cligosiban (purchased from MedChemExpress) was started, and the oral administration was applied at each dose of 60 mg/kg every other day for a total of 10 doses. • (3) After one week from the tenth oral administration, the nude mice were dissected, and the subcutaneous tumor weights were measured.
The same procedure as that in Example 1 was applied except that no Cligosiban was administered.

[6] = system: malignant mesothelioma cell line NCI-H2052; test: Xenograft model: cisplatin and pemetrexed, Cligosiban, and combined use; format: in vivo; conditions: NCI-H2052 subcutaneous in nude mice; Cligosiban oral 60 mg/kg every other day, 10 doses from day 7; cisplatin 2 mg/kg and pemetrexed 25 mg/kg once tail vein day 7; measured two days after tenth dose (FIG. 9)
Experimental: as §3, with “After 7” for “After 3”, “After 7 days from the subcutaneous administration, cisplatin (product number 033-20091, purchased from FUJIFILM Wako Pure Chemical Corporation) 2 mg/kg and pemetrexed disodium heptahydrate (product number 161-26263, purchased from FUJIFILM Wako Pure Chemical Corporation) 25 mg/kg were once injected into a tail vein. • (4) After two days” for “After one week”, “oral administration of Cligosiban,” for “oral administration,”
The same procedure as that in Example 25 was applied except that neither cisplatin nor pemetrexed was administered.
The same procedure as that in Example 25 was applied except that neither Cligosiban nor cisplatin and pemetrexed was administered.
The same procedure as that in Example 25 was applied except that Cligosiban was not administered.

SMILES | proliferation of malignant mesothelioma cells (WST-1 assay) [1] | proliferation of malignant mesothelioma cells (WST-1 assay) [2] | proliferation of malignant mesothelioma cells (WST-1 assay) [3] | proliferation of malignant mesothelioma cells (WST-1 assay) [4] | subcutaneous tumor weight ([5]; from day 3, measured one week after tenth dose) | growth of the subcutaneous tumor [5] | subcutaneous tumor weight [6]
CO/N=C1/C[C@@H](C(=O)NC[C@@H](O)c2ccccc2)N(C(=O)c2ccc(-c3ccccc3C)cc2)C1 [OT-R antagonist 1] | proliferation of malignant mesothelioma cells was suppressed | proliferation of malignant mesothelioma cells was suppressed |  |  |  |  | 
Cc1ccccc1N1CCN(S(=O)(=O)C[C@@]23CC[C@H](CC2NC(=O)[C@H](N)CCS(C)(=O)=O)C3(C)C)CC1 (stereo partly drawn) [L368,899 hydrochloride] | proliferation of malignant mesothelioma cells was suppressed | proliferation of malignant mesothelioma cells was suppressed |  |  |  |  | 
CCOc1ccc(C[C@H]2NC(=O)CCSSC[C@@H](C(=O)N3CCC[C@H]3C(=O)N[C@@H](CCCN)C(=O)NCC(N)=O)NC(=O)[C@H](CC(N)=O)NC(=O)[C@H]([C@@H](C)O)NC(=O)[C@H]([C@@H](C)CC)NC2=O)cc1 [Atosiban] ([Mpa][dY](Et)ITNCP[Orn]G-NH2; disulfide 1-6) | proliferation of malignant mesothelioma cells was suppressed | proliferation of malignant mesothelioma cells was suppressed |  |  |  |  | 
N.N.[Cl][Pt][Cl] [cisplatin] |  |  | more suppresses proliferation of malignant mesothelioma cells than Comparative example 11 and Comparative example 13 | more suppresses proliferation of malignant mesothelioma cells than Comparative example 11 and Comparative example 13 |  |  | 
COCc1nnc(N2CC(Oc3ccc(F)cc3Cl)C2)n1-c1ccc(OC)nc1 [Cligosiban] | more suppresses proliferation of malignant mesothelioma cells | more suppresses proliferation of malignant mesothelioma cells | more suppresses proliferation of malignant mesothelioma cells than Comparative example 11 and Comparative example 13 | more suppresses proliferation of malignant mesothelioma cells than Comparative example 11 and Comparative example 13 | smaller than that of Comparative example 1 | suppresses growth of the subcutaneous tumor statistically, significantly compared to Comparative example 1 | smaller than the subcutaneous tumor weight of Comparative example 16
